Experiment: in vitro
Details: human, hela cells, % viability

SMILES | viability at 28.5 h, 10 µM [%]
Cc1ccc(SCCNc2nc3c([nH]2)c(=O)n(C)c(=O)n3C)cc1 [CBK269887] | 92.7
O=S(=O)(c1ccccc1Br)N1CCOCC1 [CBK062404] | 96.9
COc1cccc(-c2cncc(C3CCN(C(=O)CCOc4ccccc4)CC3)n2)c1 [CBK286153] | 88.9
CC(=O)N1CC[C@H]2NC(=O)CNC(=O)C3(CCCC[C@H]2C1)CCN(Cc1ccc(Cl)cc1)CC3 [CBK292119] | 90.5
O=C(Nc1ccc2[nH]ccc2c1)c1cnc(-c2ccc(F)cc2)c(-c2ccncc2)c1 [CBK037451] | 91.9
CC1(C)CC(NC(=O)c2cc3cccnc3[nH]2)CCO1 (centres unmarked) [CBK305467] | 82.3
O=C(CSc1n[nH]c(-c2ccccc2Cl)n1)Nc1ccccc1F [CBK265901] | 82.9
COc1ccc(C(=O)CSc2nnc(-c3ccc4c(c3)OCO4)n2-c2ccccc2)cc1 [CBK263592] | 80.7
CN(Cc1ccccc1N1CCCC1)C(=O)Cc1cn2ccsc2n1 [CBK305897] | 78
COc1cc(CNC(=O)NC(=O)C2CCN(CCc3cccc(O)c3)CC2)cc(OC)c1OC [CBK034857] | 93.2
Cc1cc(C)c2c(N)c(C(=O)Nc3ccc(Br)cc3)sc2n1 [CBK072019] | 108
O=C(O)c1ccc(N2CC(C(=O)Nc3ccc(F)cc3)CC2=O)cc1 (centres unmarked) [CBK286794] | 85.3
O=C(O)CSCC(=O)c1ccccc1 [CBK262140] | 93.1
Cc1ccc2oc(C(=O)N3CCN(CC(=O)N(C)C)CC3)c(C)c2c1 [CBK281423] | 94.2
CN(C)C(=O)c1cccc(-c2cnc(N3CCOCC3)c3nccn23)c1 [CBK091261] | 101
C=CCn1c(-c2sc(NC(=O)CCc3ccco3)nc2C)n[nH]c1=S [CBK295312] | 89.4
S=c1[nH]nc(COc2ccc(Cl)cc2Cl)[nH]1 [CBK288511] | 80.3
COC(=O)c1ccccc1NC(=O)c1ccc(-n2cnnn2)cc1 [CBK058360] | 91.1
COC(=O)c1cccc(OCCn2c(=O)c(C#N)cn(C3CC3)c2=O)c1 [CBK305990] | 98.6
OCCN(CCO)c1cncc(-c2cccs2)n1 [CBK065766] | 95.4
C(=C\c1cccc(N2CCN(CCN3CCCC3)CC2)n1)/c1ccccc1 [CBK036853] | 97.8
CC1Oc2ccccc2OC1C(=O)Nc1ccc([N+](=O)[O-])cc1Cl (centres unmarked) [CBK269412] | 85.8
CC(C)S(=O)(=O)CC(=O)Nc1ccc(C(=O)O)cc1 [CBK020001] | 96.6

SMILES | viability at 28.5 h, 10 µM [%]
COc1ccc(C(C)C)cc1-c1cc(Nc2cc(OC)c(OC)c(OC)c2)n2nccc2n1 [CBK037746] | 103
Cc1ccc(S(=O)(=O)Oc2cccc(C(c3c(C)n[nH]c3O)c3c(C)n[nH]c3O)c2)cc1 [CBK265016] | 95.1
Cc1nc(C(Cc2ccsc2)NC(=O)Cn2cccn2)sc1C (centres unmarked) [CBK284781] | 93.9
Cc1noc(CN2CCN(c3ccc4nnc(C(F)(F)F)n4n3)CC2)n1 [CBK305566] | 93.3
COc1ccc(-n2c(C)c([N+](=O)[O-])c3ccc(O)c(CNCCCO)c32)cc1 [CBK263504C] | 88.4
COc1ccc(CCNC(=O)c2nc3ncccn3n2)cc1OC [CBK268795] | 90.4
CCOc1cccc(CNc2ccc(N3CCOCC3)c(C(=O)O)c2)c1 [CBK269973] | 92.9
CCOC(=O)c1cnc2c(C(F)(F)F)cccc2c1NCCCN1CCOCC1 [CBK266012] | 92.4
COc1ccccc1-c1nccnc1NCc1cc(OC)c(OC)c(OC)c1 [CBK036642] | 90.6
CC1CCCC(C)N1C(=O)Cn1ncc2cccn2c1=O (centres unmarked) [CBK283680] | 101
COc1ccc(C(=O)NC(c2ccc(OC)c(OC)c2)c2cc(Cl)c3cccnc3c2O)cc1 (centres unmarked) [CBK263992] | 96.3
O=C1CCC(CNS(=O)(=O)c2ccccc2Cl)N1 (centres unmarked) [CBK304850] | 103
Cc1cccc(C)c1NC(=O)Nc1cc(N2CCNCC2)c2occc2c1 [CBK061748C] | 82.8
CCn1cc(C2CN(S(=O)(=O)c3ccc(F)c(C)c3)CCO2)cn1 (centres unmarked) [CBK305419] | 91.3
O=c1c2[nH]c3ccccc3c2ncn1Cc1ccccc1 [CBK287809] | 103
CCn1c(CNC(=O)c2cc(C(C)C)on2)nc2ccccc21 [CBK281393] | 94.2
COc1ccc([C@H]2CN(C(=O)c3ccccn3)[C@@H]3CCCN(C(C)=O)[C@H]23)cc1 [CBK285523] | 91.4
CC1=NC2c3ccsc3C=CC2S1 (centres unmarked) [CBK008720] | 112
O=C(O)CCSC1=CCS(=O)(=O)c2ccc(Cl)cc21 [CBK013721] | 114
Cc1cc(NS(=O)(=O)c2cnn(-c3ccccc3)c2C)n(C)n1 [CBK067252] | 107
OC(CNc1nccnc1-c1cccc(C(F)(F)F)c1)COc1ccccc1 (centres unmarked) [CBK037010] | 89.9
[N-]=[N+]=Nc1nc2c(N)ncnc2n1C1CC(O)C(CO)O1 (centres unmarked) [CBK201178] | 95.2
COc1cc(/C=C2/S/C(=N\c3ccccc3)NC2=O)ccc1OCc1ccccc1[N+](=O)[O-] [CBK262165] | 88.4

SMILES | viability at 28.5 h, 10 µM [%]
CC(C)(C)c1ccc(-c2cnc3nc(N)ccc3c2)cc1 [CBK061888] | 88.3
c1ccc(C2(CN3CCN(Cc4cccnc4)CC3)CC2)cc1 [CBK282793] | 117
CC(=O)c1ccc(NC(=O)NC[C@H]2C[C@@H]3CC[N@]2C[C@@H]3CN2CCCCC2)cc1 [CBK288766] | 92.3
CCCS(=O)(=O)c1ccc(NC(=O)Nc2ccc(Cl)cc2Cl)cc1 [CBK008564] | 76.1
CN1CCCN(c2cncc(-c3cccnc3)n2)CC1 [CBK037215] | 92.9
OC(COc1cccc2c1CCCC2)CN1CCC(Cc2ccccc2)CC1 (centres unmarked) [CBK003829] | 94.7
Oc1cc(C(F)(F)F)nc(CCc2ccc(Cl)cc2)n1 [CBK003678] | 107
Cc1cccc(-c2ncc(NC(=O)Cc3cccc(Oc4ccccc4)c3)nc2-c2ccc(N)cc2)c1 [CBK037583] | 97.2
CN(C)c1cccc(C(=O)Nc2cnc(-c3cccc(C(F)(F)F)c3)c(-c3cccnc3)n2)c1 [CBK036752] | 90.4
COC(=O)N1CCCCC1C(=O)NCCc1nc(C)cc(C(F)(F)F)n1 (centres unmarked) [CBK306752] | 94.2
Cc1n[nH]c(C)c1CCCCCOc1ccccc1 [CBK027211C] | 84.3
CCOC(=O)CCNC(=O)c1ccccc1-n1cccc1 [CBK149611] | 95.3
CCC(CN1CCN(C)CC1)NC(=O)Cc1coc2cc(C)ccc12 (centres unmarked) [CBK282790] | 102
COc1ccccc1OCc1ccccc1 [CBK002814] | 105
O=C(Nc1ccc(Br)c2cccnc12)c1ccc(COc2ccccc2)cc1 [CBK266062] | 94.2
Cc1nc(CC(=O)Nc2ccc(N3CCOCC3)cc2)cs1 [CBK304339] | 95.8
CN(C(=O)c1cc[nH]n1)C1CCN(c2ncnc3ccccc23)CC1 [CBK305916] | 79
O=C(c1ccc(F)cc1)N1C[C@H](c2ccsc2)[C@H]2CN(Cc3cccs3)CC[C@H]21 [CBK285636] | 114
CCOC(=O)CC(C)NS(=O)(=O)c1ccc(OC(F)(F)F)cc1 (centres unmarked) [CBK044954] | 104
O=C(NCc1ccccc1)c1ccc(CN2CCC(Cc3ccccc3)CC2)cc1 [CBK263432] | 87.5
Cc1c(C(=O)O)c2cc(O)ccc2n1-c1ccccc1 [CBK115329] | 103
OCCN1CCN(c2ccc(-c3cc(C(F)(F)F)cc(C(F)(F)F)c3)cn2)CC1 [CBK036941] | 99
Cc1nc2c(c(=O)[nH]1)CN(C(=O)c1cc(C3CC3)oc1C)CC2 [CBK283650] | 103

SMILES | viability at 28.5 h, 10 µM [%]
CC(C)(C)c1ccc(S(=O)(=O)N2CCCC[C@H]2COC(=O)c2nccnc2C(=O)O)cc1 [CBK200065] | 91.6
C[C@@H]1CN(Cc2ccco2)[C@H](C)CN1CC(=O)Nc1nc2c(s1)CCCC2 [CBK286530] | 100
Cc1cc(C(F)(F)F)c2c(NCc3ccoc3)n[nH]c2n1 [CBK284698] | 82.9
CC(C#N)(NC(=O)COc1ncnc2sc3c(c12)CCC3)C1CC1 (centres unmarked) [CBK306333] | 88.1
C#CCn1ncc2c3sc(C)cc3n(CC)c2c1=O [CBK284225] | 89.5
O=C(Nc1ccccc1C(=O)O)c1ccccc1Cl [CBK287114] | 88
CN(C)C(=O)CCc1nc(-c2ccccn2)no1 [CBK297735] | 88.3
Cc1ccnc2nc(C(=O)OC(C)C(=O)N3CCCC3)nn12 (centres unmarked) [CBK306089] | 88.9
NC1(C(F)(F)F)Oc2cc(Cl)c(Cl)cc2O1 [CBK021805] | 88.5
Clc1cc2nc(Sc3ccccn3)c(N3CCCC3)nc2cc1Cl [CBK093754] | 100
O=C(Cc1ccccc1F)NCc1nnc(-c2cccs2)o1 [CBK284632] | 82
Nc1nc(OCCN2CCCC2=O)cnc1-c1cc(Cl)cc(Cl)c1 [CBK145199] | 89.3
CCC12CN3CC(CC)(CN(C1)C3c1ccccc1[N+](=O)[O-])C2=O (centres unmarked) [CBK264604] | 116
CCn1ncc(CN2C3CCC2CC(O)(c2ccccc2F)C3)c1C (centres unmarked) [CBK282663] | 85
OC1(c2ccccc2)CCN(Cc2cncn2Cc2ccccc2)C1 (centres unmarked) [CBK282809] | 110
O=C(CO)N1CC2(CCN(Cc3ccc4ccccc4c3)CC2)c2ccccc21 [CBK131501] | 88.7
CCN1CCN(Cc2c(C3CCCC3)[nH]c3ncccc23)CC1 [CBK285386] | 97
COc1ccc(C(=O)Nc2ccccc2)cc1S(=O)(=O)Nc1cccnc1 [CBK266771] | 94.4
O=C(CSc1ncn(-c2ccccc2)n1)Nc1ccccc1Cl [CBK265593] | 104
O=C(c1[nH]nc2c1CCCC2)N1CCn2cc(C(F)(F)F)nc2C1 [CBK283915] | 96.7
